{"source": "ChEMBL document CHEMBL2074414", "about": "“Molecular and functional characterization of organic cation/carnitine transporter family in mice” (J Biol Chem, 2000)", "molecules": {"B1": {"name": "Organic cation/carnitine transporter 2 (Mus musculus) (protein)", "chain": "MRDYDEVTAFLGEWGPFQRLIFFLLSASIIPNGFNGMSIVFLAGTPEHRCLVPHTVNLSSAWRNHSIPLETKDGRQVPQKCRRYRLATIANFSELGLEPGRDVDLEQLEQESCLDGWEYDKDVFLSTIVTEWDLVCKDDWKAPLTTSLFFVGVLMGSFISGQLSDRFGRKNVLFLTMGMQTGFSFLQVFSVNFEMFTVLFVLVGMGQISNYVAAFVLGTEILSKSIRIIFATLGVCIFYAFGFMVLPLFAYFIRDWRMLLLALTVPGVLCGALWWFIPESPRWLISQGRIKEAEVIIRKAAKINGIVAPSTIFDPSELQDLNSTKPQLHHIYDLIRTRNIRVITIMSIILWLTISVGYFGLSLDTPNLHGDIYVNCFLLAAVEVPAYVLAWLLLQYLPRRYSISAALFLGGSVLLFMQLVPSELFYLSTALVMVGKFGITSAYSMVYVYTAELYPTVVRNMGVGVSSTASRLGSILSPYFVYLGAYDRFLPYILMGSLTILTAILTLFFPESFGVPLPDTIDQMLRVKGIKQWQIQSQTRMQKDGEESPTVLKSTAF"}, "B2": {"name": "Solute carrier family 22 member 4 (Mus musculus) (protein)", "chain": "MRDYDEVIAFLGEWGPFQRLIFFLLSASIIPNGFNGMSVVFLAGTPEHRCLVPDTVNLSSSWRNHSIPLETKDGRQVPQSCRRYRLATIANFSAMGLEPGQDVDLEQLEQESCLDGWEYDKDIFLSTIVTEWNLVCEDDWKTPLTTSLFFVGVLCGSFVSGQLSDRFGRKKVLFATMAVQTGFSFVQIFSTNWEMFTVLFAIVGMGQISNYVVAFILGTEILSKSVRIIFSTLGVCTFFAIGYMVLPLFAYFIRDWRMLLLALTLPGLFCVPLWWFIPESPRWLISQRRFAEAEQIIQKAAKMNSIVAPAGIFDPLELQELNSLKQQKVIILDLFRTRNIATITVMAVMLWMLTSVGYFALSLNVPNLHGDVYLNCFLSGLIEVPAYFTAWLLLRTLPRRYIIAGVLFWGGGVLLLIQVVPEDYNFVSIGLVMLGKFGITSAFSMLYVFTAELYPTLVRNMAVGITSMASRVGSIIAPYFVYLGAYNRLLPYILMGSLTVLIGIITLFFPESFGVTLPENLEQMQKVRGFRCGKKSTVSVDREESPKVLITAF"}, "B3": {"name": "Solute carrier family 22 member 21 (Mus musculus), Q9WTN6 (protein)", "chain": "MLDYDEVTAFLGEWGTFQRLIFFLLSASIIPNGFTGLSAVFLTAIPEHRCRIPDTVNLSSAWRNHSIPMETKDGPEVPQKCRRYRLATIANFSELGLEPGRDVDLEQLEQENCLDGWEYDKDIFLSTIVTEWDLVCKDDWKAPLTTSFFYVGVLLGSFISGQLSDRFGRKNILFLTMAMHTGFSFIQVFSVNFEMFTLLYTLVGMGHISNYVAAFVLGTEMLSKSVRIIFATLGVCIFFAFGFMVLPLFAYFIREWRRLLLAITLPGVLCGALWWFIPESPRWLISQGRIKEAEVIIRKAAKINGIVAPSTIFDPSETNKLQDDSSKKPQSHHIYDLVRTPNIRILTIMSIILWLTISVGYFGLSLDTPNLNGNIYVNCFLLAAVEVPAYVLAWLLLQHVSRRYSMAGSLFLGGSVLLLVQLVPSDLHYLSTTLVMVGKFGITSAYSMVYVYTAELYPTVVRNMGVGVSSTASRLGSILSPYFVYLGAYDRRLPYILMGSLTILTAIITLFFPESSGVSLPETIDEMQKVKKLKQRQSLSKKGSPKESKGNVSRTSRTSEPKGF"}}, "key": {"[1]": {"target": "T1, Octn2 (Organic cation/carnitine transporter 2) (Mus musculus, UniProt Q9Z0E8)", "T1 sequence (Q9Z0E8 whole entry)": "B1 chain", "experiment": "in vitro", "conditions": "human, Octn2-HEK cells, probe carnitine"}, "[2]": {"target": "T2, Solute carrier family 22 member 21 (Mus musculus) (UniProt Q9WTN6)", "T2 sequence (whole entry)": "B3 chain", "experiment": "TP_TRANSPORTER: inhibition of carnitine uptake by Octanoyl-carnitine at 5uM in Octn3-HEK cells", "assay_type": "functional, cell-based", "design": "scale not given: the % may be the effect or the level left", "conditions": "HEK293"}, "[3]": {"target": "T1, Octn2 (Organic cation/carnitine transporter 2)", "experiment": "TP_TRANSPORTER: inhibition of carnitine uptake by Octanoyl-carnitine at 5uM in Octn2-HEK cells", "assay_type": "functional, cell-based, HEK293", "design": "scale not given: the % may be the effect or the level left", "conditions": "human, probe carnitine, read-out: Activity"}, "[4]": {"target": "T2, Solute carrier family 22 member 21 (Mus musculus)", "experiment": "TP_TRANSPORTER: inhibition of carnitine in Octn3-HEK cells", "assay_type": "functional, cell-based", "conditions": "HEK293"}, "[5]": {"target": "T1, Octn2 (Organic cation/carnitine transporter 2)", "experiment": "TP_TRANSPORTER: inhibition of carnitine transport by Palmitoyl-carnitine at 5uM in Octn2-HEK cells", "assay_type": "functional, cell-based, HEK293", "design": "scale not given: the % may be the effect or the level left", "conditions": "human, probe carnitine, read-out: Activity"}, "[6]": {"target": "T2, Solute carrier family 22 member 21 (Mus musculus)", "experiment": "TP_TRANSPORTER: inhibition of carnitine transport by gamma-butyrobetaine at 5uM in Octn3-HEK cells", "assay_type": "functional, cell-based", "design": "scale not given: the % may be the effect or the level left", "conditions": "HEK293"}, "[7]": {"target": "T1, Octn2 (Organic cation/carnitine transporter 2)", "experiment": "TP_TRANSPORTER: inhibition of carnitine uptake by gamma-butyrobetaine at 5uM in Octn2-HEK cells", "assay_type": "functional, cell-based, HEK293", "design": "scale not given: the % may be the effect or the level left", "conditions": "human, probe carnitine, read-out: Activity"}, "[8]": {"target": "T3, Solute carrier family 22 member 4 (Mus musculus, UniProt Q9Z306)", "T3 sequence (Q9Z306 whole entry)": "B2 chain", "experiment": "TP_TRANSPORTER: uptake in Octn1-HEK cells", "assay_type": "functional, cell-based", "conditions": "human, hek293"}, "[9]": {"target": "T4, Organic cation/carnitine transporter 2 (Mus musculus, UniProt Q9Z0E8)", "T4 sequence (Q9Z0E8 whole entry)": "B1 chain", "experiment": "TP_TRANSPORTER: inhibition of carnitine uptake by Acetyl-L-carnitine at 5uM in Octn2-HEK cells", "assay_type": "functional, cell-based", "design": "scale not given: the % may be the effect or the level left", "conditions": "human, hek293, 5 µM"}, "[10]": {"target": "T2, Solute carrier family 22 member 21 (Mus musculus)", "experiment": "TP_TRANSPORTER: inhibition of carnitine uptake by Acetyl-L-carnitine at 5uM in Octn3-HEK cells", "assay_type": "functional, cell-based", "design": "scale not given: the % may be the effect or the level left", "conditions": "HEK293"}, "[11]": {"target": "T4, Organic cation/carnitine transporter 2", "experiment": "TP_TRANSPORTER: inhibition of carnitine uptake by Butyryl-carnitine at 5uM in Octn2-HEK cells", "assay_type": "functional, cell-based", "design": "scale not given: the % may be the effect or the level left", "conditions": "human, hek293, 5 µM"}, "[12]": {"target": "T2, Solute carrier family 22 member 21 (Mus musculus)", "experiment": "TP_TRANSPORTER: inhibition of carnitine transport by Butyryl-carnitine at 5uM in Octn3-HEK cells", "assay_type": "functional, cell-based", "design": "scale not given: the % may be the effect or the level left", "conditions": "HEK293"}, "[13]": {"target": "T4, Organic cation/carnitine transporter 2", "experiment": "TP_TRANSPORTER: inhibition of carnitine uptake by Glycine betaine at […] in Octn2-HEK cells", "assay_type": "functional, cell-based", "design": "scale not given: the % may be the effect or the level left", "conditions": "human, hek293"}, "[14]": {"target": "T2, Solute carrier family 22 member 21 (Mus musculus)", "experiment": "TP_TRANSPORTER: inhibition of carnitine uptake by Glycine betaine at 500uM in Octn3-HEK cells", "assay_type": "functional, cell-based", "design": "scale not given: the % may be the effect or the level left", "conditions": "HEK293"}, "[15]": {"substrate": "C[N+](C)(C)CC(O)CC(=O)[O-]", "experiment": "TP_TRANSPORTER: uptake in Octn2-HEK cells", "assay_type": "functional, cell-based, HEK293"}, "[16]": {"substrate": "CC[N+](CC)(CC)CC", "experiment": "cells, lysate or membranes named"}, "[17]": {"substrate": "C[N+](C)(C)CC(O)CC(=O)[O-]", "experiment": "TP_TRANSPORTER: uptake in Octn3-HEK cells", "assay_type": "functional, cell-based", "conditions": "HEK293"}}, "data": [{"molecule": "C[N+](C)(C)CCO", "note": "[CHOLINE]", "values": [{"measurement": "activity at 500 µM", "setting": "[1]", "result": 75, "unit": "%"}]}, {"molecule": "CCCCCCCC(=O)OC(CC(=O)O)C[N+](C)(C)C", "note": "(stereo not drawn) [Octanoyl-carnitine]", "values": [{"measurement": "Activity", "setting": "[2]", "result": 15, "unit": "%"}, {"measurement": "activity at 5 µM", "setting": "[3]", "result": 38, "unit": "%"}]}, {"molecule": "CCCCCCCCCCCCCCCC(=O)OC(CC(=O)[O-])C[N+](C)(C)C", "note": "(stereo not drawn) [Palmitoyl-carnitine]", "values": [{"measurement": "Activity", "setting": "[4]", "result": 54, "unit": "µM"}, {"measurement": "activity at 5 µM", "setting": "[5]", "result": 28, "unit": "%"}]}, {"molecule": "C[N+](C)(C)CCCC(=O)[O-]", "values": [{"measurement": "Activity", "setting": "[6]", "result": 11, "unit": "%"}, {"measurement": "activity at 5 µM", "setting": "[7]", "result": 77, "unit": "%"}]}, {"molecule": "C[N+](C)(C)CC(O)CC(=O)[O-]", "note": "(stereo not drawn) [CARNITINE]", "values": [{"measurement": "Activity", "setting": "[8]", "result": "substrate []"}]}, {"molecule": "CC(=O)O[C@H](CC(=O)[O-])C[N+](C)(C)C", "note": "[ACETYLCARNITINE]", "values": [{"measurement": "Activity", "setting": "[9]", "result": 67, "unit": "%"}, {"measurement": "Activity", "setting": "[10]", "result": 21, "unit": "%"}]}, {"molecule": "CCCC(=O)OC(CC(=O)[O-])C[N+](C)(C)C", "note": "(stereo not drawn) [Butyryl-carnitine]", "values": [{"measurement": "Activity", "setting": "[11]", "result": 66, "unit": "%"}, {"measurement": "Activity", "setting": "[12]", "result": 13, "unit": "%"}]}, {"molecule": "C[N+](C)(C)CC(=O)O", "note": "[BETAINE]", "values": [{"measurement": "Activity", "setting": "[13]", "result": 56, "unit": "%"}, {"measurement": "Activity", "setting": "[14]", "result": 84, "unit": "%"}]}, {"molecule": "B1", "values": [{"measurement": "Km", "setting": "[15]", "result": 22, "unit": "µM"}, {"measurement": "Km", "setting": "[16]", "result": 216, "unit": "µM"}]}, {"molecule": "B2", "values": [{"measurement": "Km", "setting": "[16]", "result": 452, "unit": "µM"}]}, {"molecule": "B3", "values": [{"measurement": "Km", "setting": "[17]", "result": 3, "unit": "µM"}]}]}
